Reference: ChEMBL document CHEMBL3639213, “2,5-disubstituted piperidine orexin receptor antagonists” (2014)

Target: T1, Orexin/Hypocretin receptor type 1 (Rattus norvegicus, UniProt P56718)
T1 sequence (P56718 whole entry): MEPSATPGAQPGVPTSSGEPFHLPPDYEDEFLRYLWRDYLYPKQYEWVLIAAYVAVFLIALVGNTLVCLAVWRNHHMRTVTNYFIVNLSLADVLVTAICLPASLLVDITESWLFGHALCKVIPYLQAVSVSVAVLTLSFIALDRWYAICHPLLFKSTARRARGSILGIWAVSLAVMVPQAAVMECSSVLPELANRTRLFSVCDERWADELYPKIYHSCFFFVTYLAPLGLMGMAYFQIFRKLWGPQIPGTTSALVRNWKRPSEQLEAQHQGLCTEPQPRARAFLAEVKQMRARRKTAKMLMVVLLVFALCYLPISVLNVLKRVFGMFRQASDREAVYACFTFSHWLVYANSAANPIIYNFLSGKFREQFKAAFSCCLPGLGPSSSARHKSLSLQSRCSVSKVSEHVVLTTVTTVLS
Test: Radioligand Binding Assay: Compound potency can be assessed by a radioligand binding assay (described in Bergman et. al. Bioorg. Med. Chem. Lett. 2008, 18, 1425-1430) in which the inhibition constant (Ki) is determined in membranes prepared from CHO cells expressing either the orexin-1 (OX1) or orexin-2 (OX2) receptor.
Format: cell membranes

Row | Compound | Ki [nM]
1 | C[C@@H]1CC[C@@H](Oc2cccc3ocnc23)CN1C(=O)c1ccccc1-n1nccn1 | 1300
2 | Cc1ccc(-n2nccn2)c(C(=O)N2C[C@H](Nc3nccc4ccccc34)CC[C@H]2C)c1 | 3.25
3 | C[C@@H]1CC[C@@H](Oc2ccnc3c(F)cccc23)CN1C(=O)c1ccccc1-n1nccn1 | 560
